Experiments:
[1] = molecular target: T1, ATP-dependent translocase ABCB1 (Homo sapiens, UniProt P08183)
Description: TP_TRANSPORTER: inhibition of Daunorubicin efflux in NIH-3T3-G185 cells

[2] = molecular target: T1, ATP-dependent translocase ABCB1; remark: listed apart in the source
Description: TP_TRANSPORTER: inhibition of Rhodamine 123 efflux in NIH-3T3-G185 cells

[3] = molecular target: T1, ATP-dependent translocase ABCB1; remark: listed apart in the source
Description: TP_TRANSPORTER: inhibition of LDS-751 efflux in NIH-3T3-G185 cells

[4] = molecular target: T1, ATP-dependent translocase ABCB1; remark: listed apart in the source
Description: TP_TRANSPORTER: inhibition of Fluo-3-AM efflux in NIH-3T3-G185 cells

[5] = molecular target: T1, ATP-dependent translocase ABCB1; remark: listed apart in the source
[6] = molecular target: T1, ATP-dependent translocase ABCB1; remark: listed apart in the source
Description: TP_TRANSPORTER: inhibition of Calcein-AM efflux in NIH-3T3-G185 cells

[7] = molecular target: T1, ATP-dependent translocase ABCB1; remark: listed apart in the source
Description: TP_TRANSPORTER: inhibition of Tetramethylrosamine efflux in NIH-3T3-G185 cells

[8] = molecular target: T1, ATP-dependent translocase ABCB1; assay: TP_TRANSPORTER: inhibition of Daunorubicin, LDS-751 and Rhodamine 123 efflux in NIH-3T3-G185 cells; format: functional, cell-based; conditions: mouse

T1 sequence (P08183 whole entry): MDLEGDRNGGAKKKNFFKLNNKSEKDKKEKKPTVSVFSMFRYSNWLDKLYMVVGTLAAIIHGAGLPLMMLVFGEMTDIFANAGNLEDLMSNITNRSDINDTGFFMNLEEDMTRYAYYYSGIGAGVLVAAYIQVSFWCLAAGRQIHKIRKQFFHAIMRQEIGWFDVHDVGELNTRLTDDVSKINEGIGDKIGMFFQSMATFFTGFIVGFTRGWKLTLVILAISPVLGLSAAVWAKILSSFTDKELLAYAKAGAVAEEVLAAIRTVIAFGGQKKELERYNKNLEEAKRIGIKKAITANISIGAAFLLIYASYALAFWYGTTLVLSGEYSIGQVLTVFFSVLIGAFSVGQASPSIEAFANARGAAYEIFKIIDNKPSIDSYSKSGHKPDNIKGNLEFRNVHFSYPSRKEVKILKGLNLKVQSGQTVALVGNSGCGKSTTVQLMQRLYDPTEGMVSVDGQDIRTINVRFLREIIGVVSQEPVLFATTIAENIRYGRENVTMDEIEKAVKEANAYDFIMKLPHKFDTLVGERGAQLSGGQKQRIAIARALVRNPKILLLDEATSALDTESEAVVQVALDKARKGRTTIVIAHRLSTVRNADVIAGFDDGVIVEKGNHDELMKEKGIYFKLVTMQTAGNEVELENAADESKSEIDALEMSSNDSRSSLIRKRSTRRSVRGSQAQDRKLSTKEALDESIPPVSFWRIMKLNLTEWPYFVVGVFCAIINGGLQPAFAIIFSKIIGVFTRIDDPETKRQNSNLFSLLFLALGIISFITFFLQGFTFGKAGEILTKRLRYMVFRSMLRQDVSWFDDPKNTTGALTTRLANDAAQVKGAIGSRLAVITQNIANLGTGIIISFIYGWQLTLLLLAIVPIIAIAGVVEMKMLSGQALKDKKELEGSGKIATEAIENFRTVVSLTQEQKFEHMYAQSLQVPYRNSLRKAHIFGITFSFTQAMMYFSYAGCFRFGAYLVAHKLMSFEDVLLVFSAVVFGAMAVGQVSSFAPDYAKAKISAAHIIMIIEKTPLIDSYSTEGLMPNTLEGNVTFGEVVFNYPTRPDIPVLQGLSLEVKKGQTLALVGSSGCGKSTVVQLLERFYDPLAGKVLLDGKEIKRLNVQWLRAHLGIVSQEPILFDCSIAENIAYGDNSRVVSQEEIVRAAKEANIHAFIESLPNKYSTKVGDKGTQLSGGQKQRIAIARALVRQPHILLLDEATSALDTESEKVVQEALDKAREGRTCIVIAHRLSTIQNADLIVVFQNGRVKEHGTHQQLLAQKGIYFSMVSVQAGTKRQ

SMILES	IC50 [1] [µM]	IC50 [2] [µM]	IC50 [3] [µM]	IC50 [4] [µM]	IC50 [5] [µM]	IC50 [6] [µM]	IC50 [7] [µM]	Activity [8]
COc1ccccc1OCCNCC(O)COc1cccc2[nH]c3ccccc3c12 (stereo unspecified) [CARVEDILOL]	4.6	6.6	6					
CC[C@H]1OC(=O)[C@H](C)[C@@H](O[C@H]2C[C@@](C)(OC)[C@@H](O)[C@H](C)O2)[C@H](C)[C@@H](O[C@@H]2O[C@H](C)C[C@H](N(C)C)[C@H]2O)[C@](C)(OC)C[C@@H](C)C(=O)[C@H](C)[C@@H](O)[C@]1(C)O [CLARITHROMYCIN]	3.8	15.1	7.2	86.7	50.2	56.1	23.8	
CC(C)/N=c1\cc2n(-c3ccc(Cl)cc3)c3ccccc3nc-2cc1Nc1ccc(Cl)cc1 [CLOFAZIMINE]	0.6	1	1.1					
C=C[C@@]1(C)CC(=O)[C@]2(O)[C@@]3(C)[C@@H](O)CCC(C)(C)[C@@H]3[C@H](O)[C@H](OC(C)=O)[C@@]2(C)O1 [COLFORSIN]	80.2		188					
CC[C@H]1CN2CCc3cc(OC)c(OC)cc3[C@@H]2C[C@@H]1C[C@H]1NCCc2cc(OC)c(OC)cc21 [EMETINE]	9.2	9.6	2.4	130	116	35.1	207	
OCCN1CCN(CCCN2c3ccccc3Sc3ccc(C(F)(F)F)cc32)CC1 [FLUPHENAZINE]	6.5	10.4	5.7					
COc1ccc2c(c1)c(CC(=O)O)c(C)n2C(=O)c1ccc(Cl)cc1 [INDOMETHACIN]								is not an inhibitor [-]
COc1ccc(CCNCCCC(C#N)(c2cc(OC)c(OC)c(OC)c2)C(C)C)cc1OC (stereo unspecified) [N-Norgallopamil]	3.6	8.6	4.9					
CC(=O)O[C@H]1C(=O)[C@@]2(C)[C@H]([C@H](OC(=O)c3ccccc3)[C@]3(O)C[C@H](OC(=O)[C@H](O)[C@@H](NC(=O)c4ccccc4)c4ccccc4)C(C)=C1C3(C)C)[C@]1(OC(C)=O)CO[C@@H]1C[C@@H]2O [PACLITAXEL]	54	70.2	53.9					
COC(=O)[C@H]1[C@H]2C[C@@H]3c4[nH]c5cc(OC)ccc5c4CCN3C[C@H]2C[C@@H](OC(=O)c2cc(OC)c(OC)c(OC)c2)[C@@H]1OC [RESERPINE]	0.5	3.9	2.1	2.1	6.1	2.6	5.3	
c1ccc([P+](c2ccccc2)(c2ccccc2)c2ccccc2)cc1 [TETRAPHENYLPHOSPHONIUM]	490		427					

From ChEMBL document CHEMBL2074145, “Active transport of fluorescent P-glycoprotein substrates: evaluation as markers and interaction with inhibitors” (Biochem Biophys Res Commun, 2001)
